Measurements taken from the NIST ThermoML archive (doi:10.1016/j.jct.2018.02.022).

Test: xn = mol fraction of the nth substance listed
Details: 92.3 kPa, Liquid; for viscosity: Concentric cylinders viscometry; for speed of sound: Frequency=3 MHz, Single path-length method; for mass density: Vibrating tube method

OCCOCCOCCO [triethylene glycol] + O
Details	mass density, 303.15 K [kg/m3]	mass density, 308.15 K [kg/m3]	speed of sound, 303.15 K [m/s]	speed of sound, 308.15 K [m/s]	viscosity, 303.15 K [mPa·s]	viscosity, 308.15 K [mPa·s]
x1 = 0.0101	1006.7	1005.03	1546.6	1554.2	–	–
x1 = 0.0196	1016.05	1014.27	1577.2	1582.2	–	–
x1 = 0.025	1021.12	1019.05	–	–	1.425	1.265
x1 = 0.029	1025.03	1022.86	1604.2	1606.8	–	–
x1 = 0.0381	1032.5	1030.16	1626.5	1627	–	–
x1 = 0.0489	1040.16	1037.64	–	–	2.135	1.865
x1 = 0.0496	1041.07	1038.52	1650.4	1648.6	–	–
x1 = 0.0601	1048.1	1045.38	1668.4	1664.8	–	–
x1 = 0.0689	1053.32	1050.48	1680.7	1675.8	–	–
x1 = 0.0754	1056.69	1053.78	–	–	3.109	2.68
x1 = 0.0801	1059.3	1056.32	1693.4	1687	–	–
x1 = 0.0905	1064.27	1061.17	1702.5	1695	–	–
x1 = 0.0993	1068.24	1065.07	–	–	4.145	3.561
x1 = 0.0996	1068.21	1065.01	1708.8	1700.4	–	–
x1 = 0.1479	1083.73	1080.2	1722.1	1710.8	–	–
x1 = 0.15	1085.03	1081.49	–	–	6.732	5.617
x1 = 0.1993	1094.5	1090.78	–	–	9.456	7.962
x1 = 0.2004	1093.95	1090.24	1716.5	1703.7	–	–
x1 = 0.2462	1099.63	1095.85	1705.3	1691.9	–	–
x1 = 0.2526	1100.4	1096.6	–	–	12.39	10.33
x1 = 0.2998	1103.65	1099.82	–	–	14.86	12.25
x1 = 0.3004	1103.99	1100.16	1690.6	1676.8	–	–
x1 = 0.3474	1106.59	1102.74	1678.1	1664.2	–	–
x1 = 0.3539	1106.3	1102.46	–	–	17.36	14.19
x1 = 0.3948	1108.5	1104.64	1666.6	1652.5	–	–
x1 = 0.4009	1108.18	1104.33	–	–	19.33	15.72
x1 = 0.4467	1110.04	1106.18	1655.4	1641.2	–	–
x1 = 0.4492	1109.87	1106.02	–	–	21.06	17.03
x1 = 0.4992	1111.36	1107.51	–	–	22.58	18.22
x1 = 0.5021	1111.28	1107.42	1644.9	1630.7	–	–
x1 = 0.548	1112.08	1108.22	1637.5	1623.2	–	–
x1 = 0.5484	1112.51	1108.65	–	–	23.9	19.23
x1 = 0.5923	1112.73	1108.87	1631	1616.6	–	–
x1 = 0.5996	1113.32	1109.45	–	–	24.96	20.07
x1 = 0.6442	1113.33	1109.46	1624.5	1610.1	–	–
x1 = 0.6506	1113.74	1109.87	–	–	25.86	20.77
x1 = 0.701	1113.89	1110.02	–	–	26.76	21.48
x1 = 0.7095	1113.94	1110.08	1617.7	1603.2	–	–
x1 = 0.7531	1114.3	1110.43	1613.4	1598.8	–	–
x1 = 0.7567	1113.98	1110.11	–	–	27.55	22.1
x1 = 0.7859	1114.55	1110.68	1610.5	1595.9	–	–
x1 = 0.8035	1114.18	1110.31	–	–	28.08	22.51
x1 = 0.8387	1114.87	1111	1606.6	1591.9	–	–
x1 = 0.8406	1114.51	1110.64	–	–	28.48	22.83
x1 = 0.8981	1115.27	1111.39	–	–	28.88	23.14
x1 = 0.9031	1115.25	1111.37	1602	1587.2	–	–
x1 = 0.9181	1115.31	1111.42	1601.3	1586.5	–	–
x1 = 0.9344	1115.4	1111.52	1600.4	1585.5	–	–
x1 = 0.9489	1115.8	1111.91	–	–	29.26	23.46
x1 = 0.9569	1115.5	1111.62	1599	1584.2	–	–
x1 = 0.9782	1115.59	1111.71	1597.9	1583	–	–
x1 = 1	1115.7	1111.81	1596.6	1581.7	29.59	23.72
